# Source: US20200024246A1, “POGOSTONE DERIVATIVES AND METHODS OF USING THE SAME” (Hamyard Associates LLC, priority 2018, published 2020)
# “And” between values parts separate entries of the source, which are not always exact repeats. Equal entries are not always repeated. “Also recorded” adds a separate entry of the source. Where two headings read alike, the source gives them in different places.
# Experiments:
# house flies [1] = test: Knockdown and mortality of DHAA-based derivatives on house flies; format: in vivo, house fly
# Source text: Accordingly, further derivatives with structures similar to Formula C3 were synthesized and tested for knockdown potential and mortality in house flies and mosquitoes using an experimental design similar to the one described above. These compounds include Formula C5, Formula C6, Formula C7, Formula C8, Formula C9, and Formula C10.
# adult flies = test: Contact toxicity on treated filter paper; format: in vivo; details: filter paper treated with 1 mL in acetone; 24 hours
# Procedure: Filter papers were treated with 1 mL of the disclosed compounds in acetone at varying concentrations, and the filter papers were placed in a dish. Ten adult flies were added to each dish and a sugar pad was added to each dish to ensure that any mortality could be attributed to the compound instead of starvation. Mortality was assessed at 24 hours.
# soybean aphids = test: Soybean aphid leaf dip assay for DHAA-based derivatives; format: in vivo; details: 24 hours
# Procedure: Isolated soybean leaves were dipped into a pyrone solution containing either 0.5% or 1.5% of select DHAA-based derivatives. The leaves were allowed to dry for 30 minutes, and then place in a dish. Ten soybean aphids were placed on each leaf. Mortality was assessed at 24 hours.
# adult female mosquitoes = test: whole plant or invertebrate; details: for 1-hour Knockdown EC50 (μg/g mosquito) / LD50: topical; for LD50: 24 h, read-out: 24-hour Mortality LD50 (μg/g mosquito)
# Procedure: The first group of DHAA-based derivatives that were tested included Formula A2, Formula B3, Formula C3, and Formula D3. A solution of 0.5% or 1.5% of each of these compounds was applied to the mosquitoes, as described above. […] Acetone was used as a control.
# adult house flies [2] = test: Topical application of pogostone derivatives with PBO or plant essential oil on house flies; format: in vivo, house fly; details: house flies, topical, derivative alone or in combination with PBO
# Procedure: Combinations of select pogostone derivatives with select concentrations of PBO or plant essential oils was performed. […] Synergists were applied as a subsequent application directly after the application of pogostone derivatives. Concentrations of synergists (plant oils or PBO) were chosen that produced no mortality at 24 hours when applied alone.
# To assess the ability of PBO to increase the toxicity of a wide variety of pogostone derivatives, PBO and the pogostone derivatives were applied in combination to the pronotum of house flies.
# Finally, the potential of plant essential oils to synergize the effect of Formula 30 was assessed.
# house flies [3] = test: Topical application on house flies; details: House Fly Toxicity; topical
# adult, female mosquitoes = test: Topical application on adult female mosquitoes (24-h mortality, 1-h knockdown); format: in vivo, mosquito; details: for ED50: read-out: KD50 (ug/g mosquito); for LD50: read-out: LD50 (ug/g mosquito); for insecticidal properties compared with natural pogostone, natural pyrethrins or terpenoids: words, refers to Table 1
# adult house flies [4] = test: House fly feeding assay (choice assay, FIG. 5); format: in vivo; details: 15% w/w in fly food, total mortality at 5 days
# Source text: Formulas 13, 17, 24, 26, 10, 27, and 29 and control (acetone and boric acid) were incorporated into 2 g of house fly food (1:1 dry milk and sucrose) at rate of 15%. Specifically, approximately 20-30 adult house flies ( ) were introduced into aquaria with a French square filled with de-ionized water. Cotton dental wicks were used to draw water up and present it to flies at the top of the French square. Compounds were introduced at a concentration of (15% w/w food) into 1:1 mixtures of evaporated milk powder and sucrose. MUSCALURE™, a potent house fly attractant/pheromone used in various house fly bait products, was also added to this mixture of bait and food at a concentration of 0.5% w/w food. Two grams of food mixed with compound was provided to house flies in each assay. Another 2 g of just fly food (no compound) was provided at the other end of the assay chamber to serve as untreated source of food. This was done to assess the ability of flies to feed on the treated food source (palatability). If acetone was used as the carrier throughout the experiment, the food was carefully stirred repeatedly to ensure evaporation so that no more acetone was present in the food. Total mortality was assessed at 5 days after introducing house flies into individual mason jars with food treated with different compounds.
# [5] = system: 3-4 instar Aedes aegypti larvae; test: Mosquito larvicide bioassay; format: in vivo; details: for LC50: Aedes aegypti
# Procedure: Mosquito larvicide bioassays were performed by introducing various concentrations of test compounds (pyrone derivatives and rotenone) into acetone at various concentrations. 200 uL of these solutions were added to individual cups containing 10, 3-4 instar Aedes aegypti larvae and 25 mL of DI water. 2 mg of Tetramin™ was provided to each cup as a food source. […] Ataxia was used as the indicator of larval mortality. At least 5 concentrations were used which caused between 10 and 90% mortality. LC50 values were calculated using a PROC PROBIT model in SAS 9.4.
# [6] = system: Pyrethroid-resistant strain of Aedes aegypti (Puerto Rican strain); test: Toxicity to insecticide-resistant mosquitoes (FIG. 1); details: dose response curves FIG. 1
# corn seeds = test: Seed treatment testing: survival/germination of treated corn seeds (FIG. 2B); format: in vivo; details: seeds coated with compound; 1 week after introduction of larvae
# Procedure: (§1) Corn seeds used were a non-transgenic type strain of corn to prevent confounding results. Germination typically occurred between 2-4 days after moistening.
# (§2) Seed coating was accomplished by placing 20 g of corn seeds or soybeans into a container with approximately 1 mL of a 1:5 Elmer's glue:water solution with a small amount of Triton-X100™ (present 100 μL/5 mL). For solid compounds, 0.25 g of compound was subsequently introduced into the container. This mixture of seeds, Elmer's Glue/water/Triton-X 100™ solution, and active compound was mixed thoroughly until seeds were coated with the active ingredient.
# (§3) For each treatment, 0.25 g of liquid compound was dissolved in 5 mL of hexane. 0.25 g of Hi-Sil 233 silica gel was introduced into this mixture of hexane and active ingredient. The solvent was blown-off using a rotary evaporator, allowing for the compound to adsorb to the silica gel. This 0.5 g of silica gel:active ingredient was then used as the solid material used for coating the seeds. The seeds were then coated with the same method used for solid compound.
# (§4) Three corn seeds coated in pogostone derivative treatments were germinated in small, 2-oz. […] Germination of seedlings was also recorded at the end of the assay by counting the total number of seeds that produced roots out of the 3 seeds in each container/replicate and recorded as total percentage germination. […]
# [7] = system: Western corn rootworm larvae; test: Seed treatment testing: rootworm survival (FIG. 2A); format: in vivo; details: seeds coated with compound; 1 week after introduction of larvae
# Procedure: as §1, §2, §3, §4
# [8] = system: Dandelion (Taraxacum officinale); test: Soil drench herbicidal test, dandelion; format: in vivo; details: Dandelion; 2 weeks after soil drench - 40 mL of 0.5% solution; Rep 1 and 2
# Procedure: Dandelion (Taraxacum officinale) seeds were obtained from the Department of Agronomy at Iowa State University. Individual seeds were sown for each pot (6″ wide×4.5″ deep) with approximately 800 mL of soil for each plan. Only plants that germinated were used for the study. Plants were treated 1-2 weeks post emergence. Plants were watered every 2-3 days as needed. Giant foxtail (Setaria faberi) seeds were obtained from the Department of Agronomy at Iowa State University. Three seeds were sown for each pot (6″ wide×4.5″ deep) with approximately 800 mL of soil for each plan. Only plants that germinated were used for the study. Plants were treated 1-2 weeks post emergence. Plants were watered every 2-3 days as needed.
# Formulations of the various active ingredients were created using the disclosed pogostone derivatives and Triton-X 100 to aid in the solvation of the active ingredient. Formulations consisted of 0.5% active ingredient by weight. […] 40 mL of formulation ([…] active ingredient) was applied to each pot containing approximately 3-5 plants per pot at 2-3 weeks after emergence. Observations were performed 3 days and 2 weeks after soil drench to determine the effects of the treatments on the various types and stages of plants. […]
# [9] = Mosquito Knockdown Properties (1 hour), topical application
# [10] = Mosquito Toxicity (24 hours), topical application to pronotum
smiles,measurement,setting,value
Cc1cc(O)c(C(=O)CC(O)C(C)C)c(=O)o1 (stereo not shown) [Formula C10],House Fly Knockdown at 0.5% concentration,house flies [1]; 0.5% concentration,52.5%
same,House Fly Mortality at 0.5% concentration,house flies [1]; 0.5% concentration,23%
same,House Fly Knockdown at 1.5% concentration,house flies [1]; 1.5% concentration,64%
same,House Fly Mortality at 1.5% concentration,house flies [1]; 1.5% concentration,24%
same,"percent mortality, 0.10% Concentration",adult flies,15%
same,"percent mortality, 0.25% Concentration",adult flies,0%
same,"percent mortality, 0.50% Concentration",adult flies,45%
same,soybean aphids dead,soybean aphids; leaf dipped in 0.5% solution,Roughly 67%
same,soybean aphids dead,soybean aphids; leaf dipped in 1.5% solution,Roughly 90%
same,Mosquito Knockdown at 0.5% concentration,adult female mosquitoes; 0.5% concentration,100%
same,Mosquito Mortality at 0.5% concentration,adult female mosquitoes; 0.5% concentration,100%
same,Mosquito Knockdown at 1.5% concentration,adult female mosquitoes; 1.5% concentration,100%
same,Mosquito Mortality at 1.5% concentration,adult female mosquitoes; 1.5% concentration,100%
same,1-hour Knockdown EC50 (μg/g mosquito),adult female mosquitoes,49 μg/g mosquito
same,LD50,adult female mosquitoes,29 mg/kg
same,ranking in knockdown and mortality screenings,adult female mosquitoes; words,performed the best in the initial knockdown and mortality screenings
O=C(c1c(O)c2ccccc2oc1=O)C1CC1 [Formula 29],LD50,adult house flies [2],1761 µg/g
same,LD50 (ug/g fly),house flies [3],1761 ug/g fly
same,ED50,"adult, female mosquitoes; [9]",613 mg/kg
same,LD50,"adult, female mosquitoes; [10]",47.7 mg/kg
same,"insecticidal properties compared with natural pogostone, natural pyrethrins or terpenoids","adult, female mosquitoes",possessed better insecticidal properties than natural pogostone
same,mortality compared with boric acid,adult house flies [4],performed better than boric acid
CCCC(=O)c1c(O)c2ccccc2oc1=O [Formula 14],LD50 (μg/g),adult house flies [2],">6,000 μg/g"
same,LC50,"[5]; larval mortality at 24 hours, in 25 mL DI water, read-out: LC50",0.9 µg/mL
same,larvicidal properties compared with natural pogostone or rotenone,[5]; words,possessed better larvicidal properties than natural pogostone; also recorded: possessed better larvicidal properties than rotenone; also recorded: performed as well as the rotenone
same,LD50 (ug/g fly),house flies [3],">6,000 ug/g fly"
same,insecticidal capacity compared with natural pyrethrins,[6],outperformed natural pyrethrins
same,ED50,"adult, female mosquitoes; topical, 1 h",> 1500 mg/kg
same,LD50,"adult, female mosquitoes; topical, 24 h",139 mg/kg
same,"insecticidal properties compared with natural pogostone, natural pyrethrins or terpenoids","adult, female mosquitoes",possessed better insecticidal properties than natural pogostone
same,1-hour Knockdown EC50 (μg/g mosquito),adult female mosquitoes,>1500 μg/g mosquito
same,LD50,adult female mosquitoes,139 mg/kg
"Cc1cc(O)c(C(=O)CCC(C)C)c(=O)o1 [Pogostone, 3-(4-Methylpentanoyl)-4-hydroxy-2H]",phytotoxicity to treated corn seeds,corn seeds,Significant phytotoxicity
same,LC50,[5]; 24 h,18.3 µg/mL
same,western corn rootworm mortality,[7],significant western corn rootworm mortality
same,"percent mortality, 0.10% Concentration",adult flies,95%
same,"percent mortality, 0.25% Concentration",adult flies,100%
same,"percent mortality, 0.50% Concentration",adult flies,100%
same,ED50,"adult, female mosquitoes; [9]",18.4 mg/kg
same,LD50,"adult, female mosquitoes; [10]",388 mg/kg
same,1-hour Knockdown EC50 (μg/g mosquito),adult female mosquitoes,95.2 μg/g mosquito
same,LD50,adult female mosquitoes,262 mg/kg
"O=C(O)COc1ccc(Cl)cc1Cl [2,4-D, 2,4-dichlorophenoxyacetic acid]",% mortality,[8],100% and 80%
CCCCCCCCCCCC(=O)c1c(O)c2ccccc2oc1=O [Formula 26],ED50,"adult, female mosquitoes; topical, 1 h",> 1500 mg/kg
same,LD50,"adult, female mosquitoes; topical, 24 h",> 1500 mg/kg
same,mortality compared with boric acid,adult house flies [4],performed similarly to boric acid
Cc1cc(O)c(C(=O)/C=C/C(C)C)c(=O)o1 [Formula 10],ED50,"adult, female mosquitoes; [9]",> 1500 mg/kg
same,LD50,"adult, female mosquitoes; [10]",> 1500 mg/kg
same,mortality compared with boric acid,adult house flies [4],performed better than boric acid
